Experimental data published in publication PMC10178848, “Modulating fast skeletal muscle contraction protects skeletal muscle in animal models of Duchenne muscular dystrophy” (The Journal of Clinical Investigation, 2023).

System: mdx mouse EDL muscle
Test: Phosphoprotein array analysis (Cell Signaling Phospho Antibody Array)
Method: mdx mouse EDL muscle was prepared for ex vivo analysis as described (n = 5). Muscles were incubated for 1 hour with DMSO or EDG-5506 (5 μM) and then flash frozen in liquid nitrogen. Tissue preparation and analysis were performed as recommended by the manufacturer (Cell Signaling Phospho Antibody Array, Full Moon Biosystems).

SMILES: O=c1ccc(-c2cnc(OCC(F)(F)F)nc2)nn1Cc1cncc(F)c1 [EDG-5506]
- Data Normalized to Median Signal: BAX (Phospho-Thr167): 0.77
- Fold Change T/C: 4E-BP1 (Ab-45) (5 μM, 1 hour): 0.88
- Fold Change T/C: 4E-BP1 (Phospho-Thr45) (5 μM, 1 hour): 0.74
- Fold Change T/C: 14-3-3 theta/tau (Phospho-Ser232) (5 μM, 1 hour): 1.01
- Fold Change T/C: 14-3-3 zeta/delta (Ab-232) (5 μM, 1 hour): 1.03
- Fold Change T/C: ACC1 (Ab-80) (5 μM, 1 hour): 0.96
- Fold Change T/C: ACC1 (Phospho-Ser80) (5 μM, 1 hour): 0.92
- Fold Change T/C: AKT (5 μM, 1 hour): 0.96
- Fold Change T/C: AKT1 (Ab-308) (5 μM, 1 hour): 1.11
- Fold Change T/C: AKT1S1 (Ab-246) (5 μM, 1 hour): 1.04
- Fold Change T/C: AMPKbeta1 (Ab-182) (5 μM, 1 hour): 0.89
- Fold Change T/C: AMPKbeta1 (Phospho-Ser182) (5 μM, 1 hour): 0.80
- Fold Change T/C: ASK1 (Ab-966) (5 μM, 1 hour): 0.99
- Fold Change T/C: ATF2 (Ab-62/44) (5 μM, 1 hour): 2.53
- Fold Change T/C: Actin Pan(a/b/g) (Ab-55/53) (5 μM, 1 hour): 0.97
- Fold Change T/C: B-RAF (Ab-598) (5 μM, 1 hour): 1.09
- Fold Change T/C: B-RAF (Phospho-Ser446) (5 μM, 1 hour): 1.05
- Fold Change T/C: BAX (Phospho-Thr167) (5 μM, 1 hour): 0.78
- Fold Change T/C: BCL-XL (Ab-47) (5 μM, 1 hour): 1.77
- Fold Change T/C: BCL-XL (Phospho-Ser62) (5 μM, 1 hour): 1.02
- Fold Change T/C: BID (Ab-78) (5 μM, 1 hour): 1.23
- Fold Change T/C: BLNK (Ab-96) (5 μM, 1 hour): 0.97
- Fold Change T/C: BLNK (Phospho-Tyr96) (5 μM, 1 hour): 0.51
- Fold Change T/C: BRCA1 (Ab-1524) (5 μM, 1 hour): 1.39
- Fold Change T/C: Bax (5 μM, 1 hour): 0.89
- Fold Change T/C: Beclin-1 (5 μM, 1 hour): 1.49
- Fold Change T/C: Beta actin (5 μM, 1 hour): 0.82
- Fold Change T/C: CBL (Phospho-Tyr700) (5 μM, 1 hour): 0.88
- Fold Change T/C: CDC25C (Ab-216) (5 μM, 1 hour): 1.97
- Fold Change T/C: CDK1/CDC2 (Phospho-Tyr15) (5 μM, 1 hour): 0.83
- Fold Change T/C: CREB (Ab-133) (5 μM, 1 hour): 0.71
- Fold Change T/C: CREB (Phospho-Ser133) (5 μM, 1 hour): 0.74
- Fold Change T/C: CaMK2-beta/gamma/delta (Ab-287) (5 μM, 1 hour): 1.42
- Fold Change T/C: CaMK2-beta/gamma/delta (Phospho-Thr287) (5 μM, 1 hour): 0.92
- Fold Change T/C: CaMK2A (Phospho-Thr286) (5 μM, 1 hour): 0.86
- Fold Change T/C: Calmodulin (Ab-79/81) (5 μM, 1 hour): 1.02
- Fold Change T/C: Caspase 8 (Phospho-Ser347) (5 μM, 1 hour): 1.08
- Fold Change T/C: Caspase 9 (Ab-196) (5 μM, 1 hour): 2.31
- Fold Change T/C: Caspase 9 (Phospho-Ser196) (5 μM, 1 hour): 0.94
- Fold Change T/C: Catalase (Ab-385) (5 μM, 1 hour): 1.34
- Fold Change T/C: Catenin beta (Ab-37) (5 μM, 1 hour): 1.21
- Fold Change T/C: Catenin beta (Phospho-Thr41/Ser45) (5 μM, 1 hour): 0.83
- Fold Change T/C: Chk2 (Ab-68) (5 μM, 1 hour): 1.17
- Fold Change T/C: Chk2 (Phospho-Thr68) (5 μM, 1 hour): 0.51
- Fold Change T/C: CrkII (Ab-221) (5 μM, 1 hour): 1.59
- Fold Change T/C: Cyclin D1 (Ab-286) (5 μM, 1 hour): 1.10
- Fold Change T/C: Cyclin D1 (Phospho-Thr286) (5 μM, 1 hour): 1.18
- Fold Change T/C: Cyclin E1 (Ab-77) (5 μM, 1 hour): 1.24
- Fold Change T/C: Cyclin E1 (Phospho-Thr77) (5 μM, 1 hour): 1.02
- Fold Change T/C: DARPP-32 (Ab-34) (5 μM, 1 hour): 1.01
- Fold Change T/C: DARPP-32 (Phospho-Thr34) (5 μM, 1 hour): 0.91
- Fold Change T/C: EEF2 (Ab-56) (5 μM, 1 hour): 0.84
- Fold Change T/C: EEF2 (Phospho-Thr56) (5 μM, 1 hour): 1.12
- Fold Change T/C: EGFR (Ab-1172) (5 μM, 1 hour): 0.86
- Fold Change T/C: Elk1 (Ab-389) (5 μM, 1 hour): 1.22
- Fold Change T/C: FADD (Phospho-Ser194) (5 μM, 1 hour): 1.53
- Fold Change T/C: FAK (Ab-910) (5 μM, 1 hour): 1.76
- Fold Change T/C: FAK (Phospho-Ser910) (5 μM, 1 hour): 1.09
- Fold Change T/C: FGFR1 (Phospho-Tyr654) (5 μM, 1 hour): 1.35
- Fold Change T/C: FKHRL1/FOXO3A (Ab-253) (5 μM, 1 hour): 1.74
- Fold Change T/C: FOXO1/3/4-pan (Ab-24/32) (5 μM, 1 hour): 1.40
- Fold Change T/C: GAPDH (5 μM, 1 hour): 0.75
- Fold Change T/C: GRK2 (Ab-29) (5 μM, 1 hour): 1.92
- Fold Change T/C: GRK2 (Phospho-Ser29) (5 μM, 1 hour): 1.26
- Fold Change T/C: GSK3 alpha/beta (Phospho-Tyr216/279) (5 μM, 1 hour): 0.97
- Fold Change T/C: GSK3 beta (5 μM, 1 hour): 1.12
- Fold Change T/C: Gab1 (Ab-627) (5 μM, 1 hour): 1.06
- Fold Change T/C: Gab2 (Phospho-Tyr643) (5 μM, 1 hour): 1.59
- Fold Change T/C: HDAC1 (Ab-421) (5 μM, 1 hour): 0.79
- Fold Change T/C: HDAC1 (Phospho-Ser421) (5 μM, 1 hour): 1.25
- Fold Change T/C: HDAC2 (Ab-394) (5 μM, 1 hour): 1.03
- Fold Change T/C: HDAC2 (Phospho-Ser394) (5 μM, 1 hour): 0.90
- Fold Change T/C: HER2 (Ab-1221/1222) (5 μM, 1 hour): 1.19
- Fold Change T/C: HSP27 (Ab-82) (5 μM, 1 hour): 0.82
- Fold Change T/C: HSP90B (Phospho-Ser226) (5 μM, 1 hour): 1.00
- Fold Change T/C: IKK alpha/beta (Ab-180/181) (5 μM, 1 hour): 0.91
- Fold Change T/C: IKK-beta (Ab-199) (5 μM, 1 hour): 1.62
- Fold Change T/C: IKK-beta (Phospho-Tyr188) (5 μM, 1 hour): 1.01
- Fold Change T/C: IKK-beta (Phospho-Tyr199) (5 μM, 1 hour): 0.84
- Fold Change T/C: IKK-gamma (Ab-31) (5 μM, 1 hour): 0.96
- Fold Change T/C: IKK-gamma (Phospho-Ser31) (5 μM, 1 hour): 0.98
- Fold Change T/C: IL-4R/CD124 (Ab-497) (5 μM, 1 hour): 0.93
- Fold Change T/C: IL-4R/CD124 (Phospho-Tyr497) (5 μM, 1 hour): 0.93
- Fold Change T/C: IL-10R-alpha (Ab-496) (5 μM, 1 hour): 1.30
- Fold Change T/C: IL-10R-alpha (Phospho-Tyr496) (5 μM, 1 hour): 0.85
- Fold Change T/C: IRS-1 (Ab-312) (5 μM, 1 hour): 1.03
- Fold Change T/C: IkB-alpha (Phospho-Ser32/36) (5 μM, 1 hour): 1.11
- Fold Change T/C: IkB-epsilon (Ab-22) (5 μM, 1 hour): 1.30
- Fold Change T/C: Integrin beta-3 (Ab-773) (5 μM, 1 hour): 1.08
- Fold Change T/C: Integrin beta-3 (Phospho-Tyr773) (5 μM, 1 hour): 0.93
- Fold Change T/C: Interferon-alpha/beta receptor alpha chain (Ab-466) (5 μM, 1 hour): 0.90
- Fold Change T/C: JAK2 (Ab-1007) (5 μM, 1 hour): 1.36
- Fold Change T/C: JunB (Phospho-Ser259) (5 μM, 1 hour): 0.79
- Fold Change T/C: LCK (Ab-393) (5 μM, 1 hour): 1.67
- Fold Change T/C: LKB1 (Ab-334) (5 μM, 1 hour): 0.94
- Fold Change T/C: LYN (Ab-507) (5 μM, 1 hour): 0.58
- Fold Change T/C: LYN (Phospho-Tyr507) (5 μM, 1 hour): 1.06
- Fold Change T/C: Lamin A/C (Ab-392) (5 μM, 1 hour): 1.84
- Fold Change T/C: Lamin A/C (Phospho-Ser392) (5 μM, 1 hour): 0.80
- Fold Change T/C: MDM2 (Ab-166) (5 μM, 1 hour): 1.49
- Fold Change T/C: MEK1 (Ab-291) (5 μM, 1 hour): 0.77
- Fold Change T/C: MEK1 (Phospho-Ser217) (5 μM, 1 hour): 0.62
- Fold Change T/C: MITF (Ab-73) (5 μM, 1 hour): 1.38
- Fold Change T/C: MKK4/SEK1 (Ab-80) (5 μM, 1 hour): 1.10
- Fold Change T/C: MSK1 (Ab-360) (5 μM, 1 hour): 0.69
- Fold Change T/C: Myc (Ab-58) (5 μM, 1 hour): 1.09
- Fold Change T/C: NFkB-p65 (Ab-529) (5 μM, 1 hour): 1.14
- Fold Change T/C: NFkB-p65 (Phospho-Ser311) (5 μM, 1 hour): 1.00
- Fold Change T/C: NFkB-p65 (Phospho-Ser529) (5 μM, 1 hour): 0.82
- Fold Change T/C: NFkB-p100/p52 (Ab-865) (5 μM, 1 hour): 0.76
- Fold Change T/C: NFkB-p100/p52 (Phospho-Ser865) (5 μM, 1 hour): 0.88
- Fold Change T/C: NFkB-p105/p50 (Ab-927) (5 μM, 1 hour): 0.85
- Fold Change T/C: P38 MAPK (Ab-182) (5 μM, 1 hour): 1.70
- Fold Change T/C: P38 MAPK (Phospho-Thr180/Tyr182) (5 μM, 1 hour): 0.35
- Fold Change T/C: P70S6K (Ab-229) (5 μM, 1 hour): 1.33
- Fold Change T/C: P70S6K (Phospho-Ser424) (5 μM, 1 hour): 1.00
- Fold Change T/C: P90RSK (Ab-359/363) (5 μM, 1 hour): 1.06
- Fold Change T/C: P90RSK (Phospho-Thr359/Ser363) (5 μM, 1 hour): 0.95
- Fold Change T/C: PDK1 (Ab-241) (5 μM, 1 hour): 1.24
- Fold Change T/C: PDK1 (Phospho-Ser241) (5 μM, 1 hour): 1.14
- Fold Change T/C: PLCG1 (Phospho-Tyr783) (5 μM, 1 hour): 2.25
- Fold Change T/C: PLK1 (Ab-210) (5 μM, 1 hour): 1.49
- Fold Change T/C: PLK1 (Phospho-Thr210) (5 μM, 1 hour): 0.60
- Fold Change T/C: PP1 alpha (Ab-320) (5 μM, 1 hour): 1.15
- Fold Change T/C: PP2A-alpha (Ab-307) (5 μM, 1 hour): 1.23
- Fold Change T/C: PP2A-alpha (Phospho-Tyr307) (5 μM, 1 hour): 0.93
